Data published in patent US20200371122A1, “BIOMARKER FOR SENESCENT CELLS” (Buck Institute for Research on Aging, priority 2017, published 2020).

Tests used:
Assay type in all cases: cell-based, human
SASP factors = experiment: qPCR of SASP and PTGS mRNAs in non-senescent cells treated with eicosanoids; settings: 10 μM
Protocol: RNA was extracted from cells or tissues using commercially available kits (Isolate II—Bioline for cells; Direct-zol—Zymo for tissues) according to the manufacturer's instructions. cDNA synthesis was performed using a High Capacity cDNA Reverse Transcription Kit (Thermo Fisher) according to the manufacturer's instructions. Quantitative PCR was performed on a LightCycler 480 II (Roche) using primers and probes designed for the Universal Probe Library. Primers and probes used for human transcripts were ACTB: 5′-CCAACCGCGAGAAGATGA (SEQ ID NO:1), 5′-TCCATCACGATGCCAGTG (SEQ ID NO:2), Probe #64; TUBA: 5′-cttcgtctccgccatcag (SEQ ID NO:3), 5′-ttgccaatctggacacca (SEQ ID NO:4), Probe #58; ALOX5: 5′-[…] (SEQ ID NO:5), 5′-[…] (SEQ ID NO:6), Probe #64; ALOX5AP: 5′-ggtctgcggggctacttt (SEQ ID NO:7), 5′-[…] (SEQ ID NO:8), Probe #18; ALOX12: 5′-[…] (SEQ ID NO:9), 5′-agccaggtcgtcaggag (SEQ ID NO:10), Probe #32; ALOX15: 5′-[…] (SEQ ID NO:11), 5′-[…] (SEQ ID NO:12), Probe #76; ALOX15B: 5′-[…] (SEQ ID NO:13), 5′-actgggaggcgaagaagg (SEQ ID NO:14), Probe #51; AKR1C1: 5′-catgcctgtcctgggattt (SEQ ID NO:15), 5′-[…] (SEQ ID NO:16), Probe #49; AKR1C2: 5′-ctatgcgcctgcagaggt (SEQ ID NO:17), 5′-[…] (SEQ ID NO:18), Probe #31; AKR1C3: 5′-[…] (SEQ ID NO:19), 5′-[…] (SEQ ID NO:20), Probe #78; CYSLTR2: 5′-[…] (SEQ ID NO:21), 5′-[…] (SEQ ID NO:22), Probe #18; DPEP1: 5′-gacgtcctgaggctggtg (SEQ ID NO:23), 5′-[…] (SEQ ID NO:24), Probe #9 (SEQ ID NO:25), ELOVL2: 5′-[…] (SEQ ID NO:26), 5′-[…] (SEQ ID NO:27), Probe #53; ELOVL4: 5′-catttggcccatggattc (SEQ ID NO:28), 5′-[…] (SEQ ID NO:29), Probe #31; ELOVL5: 5′-cccttccatgcgtccata (SEQ ID NO:30), 5′-[…] (SEQ ID NO:31), Probe #31; EPHX2: 5′-ttctgctggacaccctgaa (SEQ ID NO:32), 5′-[…] (SEQ ID NO:33), Probe #45; GPX4: 5′-ttcccgtgtaaccagttcg (SEQ ID NO:34), 5′-[…] (SEQ ID NO:35), Probe #36; LTA4H: 5′-ctgctctcacggtccagtc (SEQ ID NO:36), 5′-[…] (SEQ ID NO:37), Probe #64; LTBR2: 5′-[…] (SEQ ID NO:38), 5′-[…] (SEQ ID NO:39), Probe #33; LTC4S: 5′-[…] (SEQ ID NO:40), 5′-[…] (SEQ ID NO:41), Probe #18; PTGDS: 5′-[…] (SEQ ID NO:42), 5′-[…] […]

IMR-90 fibroblasts = experiment: Induction of senescence in non-senescent cells by prostaglandins or 5-LOX pathway products (EdU, SA-B-gal, p21, immunoblot)
Protocol: RNA was extracted from cells or tissues using commercially available kits (Isolate II—Bioline for cells; Direct-zol—Zymo for tissues) according to the manufacturer's instructions. cDNA synthesis was performed using a High Capacity cDNA Reverse Transcription Kit (Thermo Fisher) according to the manufacturer's instructions. Quantitative PCR was performed on a LightCycler 480 II (Roche) using primers and probes designed for the Universal Probe Library. Primers and probes used for human transcripts were ACTB: 5′-CCAACCGCGAGAAGATGA (SEQ ID NO:1), 5′-TCCATCACGATGCCAGTG (SEQ ID NO:2), Probe #64; TUBA: 5′-cttcgtctccgccatcag (SEQ ID NO:3), 5′-ttgccaatctggacacca (SEQ ID NO:4), Probe #58; ALOX5: 5′-[…] (SEQ ID NO:5), 5′-[…] (SEQ ID NO:6), Probe #64; ALOX5AP: 5′-ggtctgcggggctacttt (SEQ ID NO:7), 5′-[…] (SEQ ID NO:8), Probe #18; ALOX12: 5′-[…] (SEQ ID NO:9), 5′-agccaggtcgtcaggag (SEQ ID NO:10), Probe #32; ALOX15: 5′-[…] (SEQ ID NO:11), 5′-[…] (SEQ ID NO:12), Probe #76; ALOX15B: 5′-[…] (SEQ ID NO:13), 5′-actgggaggcgaagaagg (SEQ ID NO:14), Probe #51; AKR1C1: 5′-catgcctgtcctgggattt (SEQ ID NO:15), 5′-[…] (SEQ ID NO:16), Probe #49; AKR1C2: 5′-ctatgcgcctgcagaggt (SEQ ID NO:17), 5′-[…] (SEQ ID NO:18), Probe #31; AKR1C3: 5′-[…] (SEQ ID NO:19), 5′-[…] (SEQ ID NO:20), Probe #78; CYSLTR2: 5′-[…] (SEQ ID NO:21), 5′-[…] (SEQ ID NO:22), Probe #18; DPEP1: 5′-gacgtcctgaggctggtg (SEQ ID NO:23), 5′-[…] (SEQ ID NO:24), Probe #9 (SEQ ID NO:25), ELOVL2: 5′-[…] (SEQ ID NO:26), 5′-[…] (SEQ ID NO:27), Probe #53; ELOVL4: 5′-catttggcccatggattc (SEQ ID NO:28), 5′-[…] (SEQ ID NO:29), Probe #31; ELOVL5: 5′-cccttccatgcgtccata (SEQ ID NO:30), 5′-[…] (SEQ ID NO:31), Probe #31; EPHX2: 5′-ttctgctggacaccctgaa (SEQ ID NO:32), 5′-[…] (SEQ ID NO:33), Probe #45; GPX4: 5′-ttcccgtgtaaccagttcg (SEQ ID NO:34), 5′-[…] (SEQ ID NO:35), Probe #36; LTA4H: 5′-ctgctctcacggtccagtc (SEQ ID NO:36), 5′-[…] (SEQ ID NO:37), Probe #64; LTBR2: 5′-[…] (SEQ ID NO:38), 5′-[…] (SEQ ID NO:39), Probe #33; LTC4S: 5′-[…] (SEQ ID NO:40), 5′-[…] (SEQ ID NO:41), Probe #18; PTGDS: 5′-[…] (SEQ ID NO:42), 5′-[…] (SEQ ID NO:43), Probe #36; PTGES: 5′-agagatgcctgcccacag (SEQ ID NO:44), 5′-tggccaccacgtacatctt (SEQ ID NO:45), Probe #4; PTGES2: 5′-[…] (SEQ ID NO:46), 5′-[…] (SEQ ID NO:47), Probe #49; PTGES3 (SEQ ID NO:48), 5′-[…] (SEQ ID NO:49), 5′-[…] (SEQ ID NO:50), Probe #48; PTGIS: 5′-[…] (SEQ ID NO:51), 5′-[…] (SEQ ID NO:52), Probe #45; PTGR1: 5′-atgatggggcagcaagtg (SEQ ID NO:53), 5′-cccatcagaaatggagtgc (SEQ ID NO:54), Probe #64; PTGS1: 5′-[…] (SEQ ID NO:55), 5′-gtggtggtccatgttcctg (SEQ ID NO:56), Probe #81; PTGS2: 5′-gatccccagggctcaaac (SEQ ID NO:57), 5′-[…] (SEQ ID NO:58), Probe #61; TBXAS1: 5′-[…] (SEQ ID NO:59), 5′-tgcctcccgtgtgaatct (SEQ ID NO:60), Probe #73; AREG: 5′-[…] (SEQ ID NO:61), 5′-[…] (SEQ ID NO:62), Probe #73; CCL2: 5′-AGTCTCTGCCGCCCTTCT (SEQ ID NO:63), 5′-GTGACTGGGGCATTGATTG (SEQ ID NO:64), Probe #40; CCL27: 5′-[…] (SEQ ID NO:65), 5′-gctgggtggcagtaggaat (SEQ ID NO:66), Probe #18; CXCL1: 5′-[…] (SEQ ID NO:67), 5′-[…] (SEQ ID NO:68), Probe #52; HGF: 5′-[…] (SEQ ID NO:69), 5′-[…] (SEQ ID NO:70), Probe #49; ILIA: 5′-[…] (SEQ ID NO:71), 5′-[…] (SEQ ID NO:72), Probe #6; IL1B: 5′-[…] (SEQ ID NO:73), 5′-[…] (SEQ ID NO:74), Probe #78; IL6: 5′-[…] (SEQ ID NO:75), 5′-gaaggcagcaggcaacac (SEQ ID NO:76), Probe #45; IL8: 5′-[…] (SEQ ID NO:77), 5′-atggttccttccggtggt (SEQ ID NO:78), Probe #72; IL10: 5′-[…] (SEQ ID NO:79), 5′-[…] (SEQ ID NO:80), Probe #67; MMP3: 5′-[…] (SEQ ID NO:81), 5′-[…] (SEQ ID NO:82), Probe #36; PDGFA: 5′-[…] (SEQ ID NO:83), 5′-[…] (SEQ ID NO:84), Probe #80; VEGF: 5′-[…] (SEQ ID NO:85), 5′-[…] (SEQ ID NO:86), Probe #50; P21WAF1(CDKN1A): 5′-[…]

[1] = test system: IMR-90 fibroblasts depleted of p53 by shRNA; experiment: Prostaglandin treatment of p53-depleted (shp53) IMR-90 fibroblasts (Ki67, cleaved caspase 3); settings: shp53 cells, 3 days
Protocol: For EdU labeling, cells were cultured with EdU (10 μM) for 24 h, fixed in 4% buffered formalin for 10 min, washed in PBS, and permeabilized in 0.5% Triton X-100 for 30 min. Cells were treated as instructed by the manufacturer Life Technologies Cat #C10337). For immunofluorescence, cells were blocked in 10% normal goat serum for 30 min, washed, and incubated overnight in antibodies to Ki67 (Abcam) or cleaved caspase 3 (Cell Signaling). Cell were then washed, incubated in fluorescent secondary antibodies, and mounted using vectashield mounting medium with DAPI.

IL-6 secretion = experiment: IL-6 ELISA on non-senescent cells treated with prostaglandins; settings: 10 μM, 10 days
Protocol: Human fetal lung fibroblasts (IMR-90) were cultured in Dulbecco's modified eagle medium (DMEM) supplemented with 10% FBS and penicillin/streptomycin. LL 29 (AnHa) cells were obtained from the ATCC and growth to confluence using the ATCC protocol, but were subcultured as described for IMR-90 before initiation of all experiments. Quiescence was induced by replacing culture media with media containing 0.2% FBS. MCF-7 and MDA-MB-231 breast cancer cells were cultured in RPMI supplemented with 10% FBS and penicillin/streptomycin. All cells were cultured at 3% O2, and used between 25 and 40 population doublings. All cells were mycoplasma free.
3×10^4 cells in 12-well plates were treated as indicated in the text, and cultured in 0.5-1 ml serum-free DMEM for 24 hr. CM were collected and clarified at 2,000×g for 10 min. Supernatants were transferred to a tube; cells were trypsinized and counted. CM (2.5 μl) were analyzed by bead-based ELISAs (AlphaLISA, Perkin-Elmer) as instructed by the manufacturer and normalized to cell number.

Row | SMILES | PTGES mRNA (SASP factors) | cell size and proliferation once prostaglandin was removed (IMR-90 fibroblasts; 10 μM 7 days, then 10 days release) | senescence-associated beta-galactosidase (IMR-90 fibroblasts; 10 μM, 10 days) | SASP factor mRNAs (SASP factors; for PGJ2 and 15d-PGJ2 most factors except VEGF and PDGF) | levels of LMNB1 and cellular HMGB1 (IMR-90 fibroblasts; 10 μM, 10 days) | p21 gene expression (IMR-90 fibroblasts; 10 μM, 10 days) | p21 protein accumulation (IMR-90 fibroblasts; 10 μM, 10 days, immunoblot) | p53 stabilization (IMR-90 fibroblasts; 10 μM, 10 days, immunoblot) | p53 phosphorylation or acetylation (IMR-90 fibroblasts; 10 μM, 10 days, western blot) | expression of MMP3 and secretion of IL-6 on removal of the prostaglandin (IMR-90 fibroblasts; release after 7 days at 10 μM) | apoptosis (positivity for cleaved caspase 3) [1] | continued cell division (Ki67 positivity) after loss of p53 [1] | IL-6 secretion (IL-6 secretion)
1 | CCCCC[C@H](O)/C=C/[C@H]1[C@H](O)CC(=O)[C@@H]1C/C=C\CCCC(=O)O [PGE2, prostaglandin E2] | elevated | became smaller and resumed proliferation | induced |  |  |  |  |  |  |  |  |  | 
2 | CCCCC[C@H](O)/C=C/[C@H]1C(=O)C=C[C@@H]1C/C=C\CCCC(=O)O [PGJ2] |  |  | induced | strongly induced | reduced levels | induced | induced | stabilized | without increasing | reduced | underwent apoptosis | did not allow | highest induction
